# Earlier results in US10206404B2, “Disinfectant” (Saban Ventures Pty Limited, priority 2012, dated 2019).
# Conditions: unbuffered peroxyacetic acid, regardless of how it is produced
structure (smiles),measurement,value
CC(=O)OO [peroxyacetic acid],pH,around 2.8
